Like-named read-outs stand apart in the source and are kept apart here. Where a SMILES comes first, the peptide text is derived from it. [ ]: non-standard residue; d: D form. dCha = N[C@H](CC1CCCCC1)C(=O)O
T1: C5a receptor (Homo sapiens, UniProt P21730)
T1 construct: endogenous in cells; host or cells: fresh human polymorphonuclear leukocytes (PMNs), intact cells
T1 sequence (P21730 1-350): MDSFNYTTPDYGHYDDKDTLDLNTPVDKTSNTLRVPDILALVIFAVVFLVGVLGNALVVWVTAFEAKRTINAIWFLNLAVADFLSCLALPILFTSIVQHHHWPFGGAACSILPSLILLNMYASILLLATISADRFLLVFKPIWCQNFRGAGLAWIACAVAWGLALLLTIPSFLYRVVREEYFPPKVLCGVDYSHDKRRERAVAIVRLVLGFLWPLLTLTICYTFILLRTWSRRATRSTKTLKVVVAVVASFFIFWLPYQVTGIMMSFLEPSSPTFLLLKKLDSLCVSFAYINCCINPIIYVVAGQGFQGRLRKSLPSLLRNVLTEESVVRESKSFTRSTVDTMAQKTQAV

T2: C5aR (Homo sapiens, UniProt P21730)
T2 construct: endogenous in cells; host or cells: fresh human polymorphonuclear leukocytes (PMNs), intact cells
T2 sequence (P21730 1-350): T1 sequence (P21730 1-350)

B1: C5a: human recombinant C5a, 74 amino acid complement glycoprotein (protein)
chain: TLQKKIEEIAAKYKHSVVKKCCYDGACVNNDETCEQRAARISLGPRCIKAFTECCVVASQLRANISHKDMQLGR

What was measured:
human fetal artery = conditions: C5a agonist analogues; cited from earlier work
C5a receptor [1] = target: T1, C5a receptor; conditions: human PMN; C5a agonist analogues; read-out: PMN Enzyme Release EC50; cited from earlier work
C5aR [2] = target: T2, C5aR; conditions: cited from earlier work
C5a receptor [3] = target: T1, C5a receptor; test: Agonist activity in human PMNs; type: cell-based
Procedure: Cells were isolated as previously described (Sanderson et al, 1995) and incubated with cytochalasin B (5 μg/mL, 15 min, 37° C.). Hank's Balanced Salt solution containing 0.15% gelatin and peptide was added on to a 96 well plate (total volume 100 μL/well), followed by 25 μL cells (4×10^6/mL). To assess the capacity of each peptide to antagonise C5a, cells were incubated for 5 min at 37° C. with each peptide, followed by addition of C5a (100 nM) and further incubation for 5 min. Then 50 μL of sodium phosphate (0.1M, pH 6.8) was added to each well, the plate was cooled to room temperature, and 25 μL of a fresh mixture of equal volumes of dimethoxybenzidine (5.7 mg/mL) and H2O2 (0.51%) was added to each well. The reaction was stopped at 10 min by addition of 2% sodium azide. Absorbances were measured at 450 nm in a Bioscan 450 plate reader, corrected for control values (no peptide), and analysed by non-linear regression.

C5a receptor [4] = target: T1, C5a receptor; test: Myeloperoxidase release from human PMNs mediated by 100 nM C5a (antagonist potency); type: cell-based; conditions: for IC50: 50% inhibition of C5a (100 nM)-caused release of MPO from PMNs, mean ± SE, read-out: pD2 ± SE (antagonist potency) (converted)
C5aR [5] = target: T2, C5aR; test: Receptor-binding assay: inhibition of 125I-C5a binding to intact human PMNs
[6] = system: carrageenan-induced paw oedema in Wistar rats; test: Carrageenan-induced rat paw oedema; type: in vivo; conditions: 1 mg/kg i.p. 30 min prior to carrageenan, after 180 and 270 min
Procedure: Alternatively, a routine carrageenan paw oedema was developed in Wistar rats by administering a pedal injection of carrageenan to elicit oedema which is visible in 2 h and maximised in 4 h. […] See Fairlie, D. P. et al (1987). Also see Walker and Whitehouse (1978).
Paw swelling was measured for up to 4.5 hr.

[7] = system: C5a-induced neutropenia in Wistar rats; test: C5a-induced neutropenia in vivo; conditions: 1 mg/kg i.v. given prior to 2 μg C5a i.v.
Procedure: Compounds were evaluated in an acute model of C5a-induced neutropenia. Transient neutropenia maximises 5 min after i.v. C5a and is profound, with >90% of circulating neutrophils disappearing from circulation at effective doses of C5a, as shown in FIG. 8. The neutropenia is due to transient adherence of circulating neutrophils to the vascular endothelium.

[8] = system: LPS-induced neutropenia in Wistar rats; test: LPS-induced neutropenia and haematocrit change; type: in vivo
Procedure: LPS causes rapid neutropenia in rats. If this effect of LPS is blocked by C5a antagonists, then C5a may be of major importance in the acute effects of LPS, and the results shown in FIG. 9 were in agreement with this hypothesis. C5a antagonists were injected (bolus i.v.) 10 min prior to challenge with LPS. Rats were anaesthetised, and blood samples (0.3 ml) were taken for measurements of PMNs. PMNs are isolated and quantified.

[9] = PMN C5aR, Finch et al, 1997, read-out: Binding Affinity IC50
[10] = dose range 0.1 nM-1 mM, human PMNs
[11] = 50% inhibition in the binding of [125I]C5a to intact PMNs, mean ± SE, read-out: pD2 ± SE (binding) (converted)

Molecule | EC50 (human fetal artery) | EC50 (C5a receptor [1]) | IC50 (C5aR [2]; [9]) | Agonist Activity (C5a receptor [3]; [10]) | other results
C5a65-74 (ISHKDMQLGR) [Compound 1, decapeptide C-terminus of C5a] | > 1000 µM | > 1000 µM | > 1000 µM | – | IC50 (C5aR [2]; literature values (Finch et al, 1997; Kawai et al, 1991), read-out: Receptor Affinity IC50): > 1000 µM
CN[C@@H](Cc1ccccc1)C(=O)N[C@@H](CCCCN)C(=O)N1CCC[C@H]1C(=O)N[C@H](CC1CCCCC1)C(=O)N[C@@H](Cc1c[nH]c2ccccc12)C(=O)N[C@@H](CCCNC(=N)N)C(=O)O [Compound 9, MeFKP(dCha)WR] | – | – | – | No | –
CC(=O)N[C@@H](Cc1ccccc1)C(=O)N[C@H]1CCCCNC(=O)[C@@H](CCCNC(=N)N)NC(=O)[C@H](Cc2c[nH]c3ccccc23)NC(=O)[C@@H](CC2CCCCC2)NC(=O)[C@@H]2CCCN2C1=O [Compound 11, Ac-F-[KP(dCha)Wr] | – | – | – | No | Agonist Activity (C5a receptor [3]; Table 5, cyclic molecules): No
CN[C@@H](Cc1ccccc1)C(=O)N[C@@H](CCCCN)C(=O)N1CCC[C@H]1C(=O)N[C@H](CC1CCCCC1)C(=O)N[C@@H](Cc1c[nH]c2ccccc12)C(=O)N[C@H](CCCNC(=N)N)C(=O)O [Compound 7, N-methylphenylalanine-lysine-proline-D-cyclohexylalanine-tryptophan-D-arginine, reference compound] | – | – | – | no agonist properties | antagonist activity against C5a and agonist decapeptide analogue 4 (C5a receptor [4]; human PMNs): shows antagonist activity; Agonist Activity (C5a receptor [3]; dose range 0.1 nM-1 mM, human PMNs, listed as SEQ. ID NO: 7): No
N=C(N)NCCC[C@@H]1NC(=O)[C@H](Cc2c[nH]c3ccccc23)NC(=O)[C@@H](CC2CCCCC2)NC(=O)[C@@H]2CCCN2C(=O)[C@@H](NC(=O)[C@@H](N)Cc2ccccc2)CCCCNC1=O [Compound 28, F-[KPdChaWR]] | – | – | – | – | IC50 (C5aR [5]; [11]): 0.316 µM; IC50 (C5a receptor [4]): 0.204 µM
CC(=O)N[C@@H](Cc1ccccc1)C(=O)N[C@H]1CCCNC(=O)[C@@H](CCCNC(=N)N)NC(=O)[C@H](Cc2c[nH]c3ccccc23)NC(=O)[C@@H](CC2CCCCC2)NC(=O)[C@@H]2CCCN2C1=O [Compound 12, Ac-F-[OP(dCha)Wr] | – | – | – | No | increase in receptor-binding affinity over decapeptide C-terminus of C5a (1) (C5aR [5]): 10^4; times less active than 17 in vitro as a C5a antagonist in PMNs (C5a receptor [4]): 100 times; Agonist Activity (C5a receptor [3]; Table 5, cyclic molecules): No; development of carrageenan paw oedema (paw swelling) [6]: significantly inhibits development of the oedema
F-[OPdChaWR] | – | – | – | – | C5a-induced neutropenia [7]: inhibits C5a-induced neutropenia; LPS-induced neutropenia ([8]; 1 mg/kg i.v. 10 min prior to i.v. LPS, rats): inhibits neutropenia; LPS-induced changes in haematocrit ([8]; 0.03-10 mg/kg i.v., 10 min prior to LPS 1 mg/kg i.v., Wistar rats): inhibition of LPS-induced neutropenia and changes in haematocrit
YSFKDMQLGR [Compound 2, C5a agonist analogue] | 9.6 µM | 92 µM | 1.3 µM | – | –
N=C(N)NCCC[C@@H]1NC(=O)[C@H](Cc2c[nH]c3ccccc23)NC(=O)[C@@H](CC2CCCCC2)NC(=O)[C@@H]2CCCN2C(=O)[C@@H](NC(=O)[C@@H](N)Cc2ccccc2)CCNC1=O [Compound 15, F-[X^2PdChaWR]] | – | – | – | – | IC50 (C5aR [5]; [11]): 0.316 µM; IC50 (C5aR [5]; Table 5, cyclic molecules, read-out: Receptor Affinity): 0.3 µM; IC50 (C5a receptor [4]): 0.0437 µM; inhibition of the action of C5a and the binding of 125I-C5a to its receptor (C5a receptor [4]; in vitro on human PMNs): potent inhibitors at nM concentrations; Agonist Activity (C5a receptor [3]; Table 5, cyclic molecules): No
C5a37-46-ahxYSFKPMPLaR [Compound 5] | 0.06 µM | 5.9 µM | 0.7 µM | – | –
N=C(N)NCCC[C@H]1NC(=O)[C@H](Cc2c[nH]c3ccccc23)NC(=O)[C@@H](CC2CCCCC2)NC(=O)[C@@H]2CCCN2C(=O)[C@H](Cc2c[nH]c3ccccc23)NC(=O)[C@H](Cc2ccccc2)NC1=O [Compound 19, [FWPdChaWr]] (cyclo(FWP[dCha]W[dR]); ring closure inferred) | – | – | – | – | pD2 ± SE (binding) (C5aR [5]; 50% inhibition in the binding of [125I]C5a to intact PMNs, mean ± SE): 4.37 ± 0.36
CC(=O)N[C@@H](Cc1ccccc1)C(=O)N[C@H]1CCCCNC(=O)[C@H](CCCNC(=N)N)NC(=O)[C@H](Cc2c[nH]c3ccccc23)NC(=O)[C@@H](CC2CCCCC2)NC(=O)[C@@H]2CCCN2C1=O [Compound 18] | – | – | – | – | Agonist Activity (C5a receptor [3]; Table 5, cyclic molecules): No
YSFKDMPLaR [Compound 3, C5a agonist analogue] | 0.5 µM | 72 µM | 3.7 µM | – | –
CN[C@@H](Cc1ccccc1)C(=O)N[C@@H](CCCCN)C(=O)N1CCC[C@H]1C(=O)N[C@H](CC1CCCCC1)C(=O)N[C@@H](Cc1c[nH]c2ccccc12)C(=O)N[C@H](CCCNC(=N)N)C(N)=O [Compound 8, MeFKP(dCha) Wr-CONH2] | – | – | – | No | reduction of receptor-affinity versus 7 (C5aR [5]; conversion to the amide): approximately 5 fold; reduction of antagonist activity versus 7 (C5a receptor [4]; conversion to the amide): approximately 5 fold
N=C(N)NCCC[C@H]1NC(=O)[C@H](Cc2c[nH]c3ccccc23)NC(=O)[C@@H](CC2CCCCC2)NC(=O)[C@@H]2CCCN2C(=O)[C@@H](NC(=O)[C@@H](N)Cc2ccccc2)CCCCNC1=O [Compound 26, F-[KPdChaWr]] | – | – | – | – | IC50 (C5aR [5]; [11]): 8.13 µM; IC50 (C5a receptor [4]): 2.82 µM
C5a12-20-ahxYSFKPMPLaR [Compound 6] | 0.08 µM | 0.7 µM | 0.07 µM | – | –
B1 | 0.02 µM | 0.03 µM | 0.0006 µM | Yes | –

From US20130005644A1, “CYCLIC AGONISTS AND ANTAGONISTS OF C5A RECEPTORS AND G PROTEIN-COUPLED RECEPTORS” (PROMICS PTY LIMITED, priority 1997, published 2013)
